Experimental data: patent US20090018189A1, “Hormone Sensitive Lipase Modulators And Methods Of Use” (DEVIRIS, priority 2007, published 2009)

Biological target: T1, recombinant HSL (Homo sapiens, UniProt Q05469)
T1 sequence (Q05469 1-1076): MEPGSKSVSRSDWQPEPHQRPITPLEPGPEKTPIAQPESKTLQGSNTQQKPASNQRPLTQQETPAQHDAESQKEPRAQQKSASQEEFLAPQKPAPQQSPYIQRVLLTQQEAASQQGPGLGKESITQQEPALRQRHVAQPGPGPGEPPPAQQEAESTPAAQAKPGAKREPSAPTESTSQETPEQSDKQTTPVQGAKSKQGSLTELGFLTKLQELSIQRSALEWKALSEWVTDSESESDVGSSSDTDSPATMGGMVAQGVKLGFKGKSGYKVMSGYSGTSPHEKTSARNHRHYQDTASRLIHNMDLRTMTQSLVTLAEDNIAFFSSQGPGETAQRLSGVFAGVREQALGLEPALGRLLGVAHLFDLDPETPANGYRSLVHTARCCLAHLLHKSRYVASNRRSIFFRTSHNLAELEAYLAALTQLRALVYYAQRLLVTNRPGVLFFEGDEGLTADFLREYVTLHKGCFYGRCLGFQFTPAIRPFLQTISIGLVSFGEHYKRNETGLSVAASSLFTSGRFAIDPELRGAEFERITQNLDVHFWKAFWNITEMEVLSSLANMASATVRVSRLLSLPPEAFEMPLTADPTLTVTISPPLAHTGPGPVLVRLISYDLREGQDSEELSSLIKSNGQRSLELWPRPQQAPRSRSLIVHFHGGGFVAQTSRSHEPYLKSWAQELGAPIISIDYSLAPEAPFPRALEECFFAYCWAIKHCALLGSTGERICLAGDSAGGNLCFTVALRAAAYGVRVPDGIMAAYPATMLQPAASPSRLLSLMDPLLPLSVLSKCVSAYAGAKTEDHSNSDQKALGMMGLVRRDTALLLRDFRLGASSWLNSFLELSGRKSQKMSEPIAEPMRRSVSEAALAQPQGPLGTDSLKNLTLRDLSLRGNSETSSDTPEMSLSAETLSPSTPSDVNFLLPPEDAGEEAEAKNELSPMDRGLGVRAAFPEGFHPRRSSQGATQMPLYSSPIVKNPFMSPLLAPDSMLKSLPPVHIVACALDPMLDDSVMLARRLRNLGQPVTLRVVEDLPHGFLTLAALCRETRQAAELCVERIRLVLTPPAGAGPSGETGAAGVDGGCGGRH
Assay: Inhibition of recombinant HSL activity
Assay type: biochemical
Method: Compounds 1-7 were dissolved in 20% DMSO as 10 mg/mL stock, and used in assays with recombinant HSL to test for the potency for inhibiting HSL activity, the protocol for which is described in International Patent Application No. PCT/US07/00284, which is incorporated by reference in its entirety herein. Each compound's inhibitory effect on HSL is shown in FIG. 1 and 2, with Compound 1 having an IC50 of about 0.1 to about 0.2 mg/mL and Compound 5 showing about 40% inhibition at 0.4 mg/mL.

IC50 (compound stock 10 mg/mL in 20% DMSO, read-out: IC50 for inhibiting HSL activity) [µM] | inhibition at 400 µg/mL (at 0.4 mg/mL) [%] | SMILES
242 to 484 |  | CCN(CC)C(CC(=O)OCCc1ccc(O)cc1)CC(=O)OCc1ccccc1 (centres unmarked) [Compound 1]
 | ~40 | COC(=O)C(=O)NC(CC(=O)NCCc1ccc(O)cc1)CC(=O)OCc1ccccc1 (centres unmarked) [Compound 5]
